Measured values as given in US9586896B2, “Nitroxyl donors with improved therapeutic index” (Cardioxyl Pharmaceuticals, Inc., priority 2013, dated 2017).

Experiment: Exploratory studies on the cause of the side effects of CXL-1020
Settings: in vivo
Experimental: Exploratory studies were continued to determine the cause of the undesirable side effects of CXL-1020 at the higher, but still clinically desirable, doses. […] Studies were conducted with alternative nitroxyl donors that were structurally unrelated to CXL-1020 but had similar half-lives for nitroxyl donation (half-lives of about 2 minutes). For these donors, nitroxyl was at its highest intravascular concentration at the catheter tip and immediately downstream in the vein into which the catheter had been inserted. In all instances, local vascular side effects at the catheter tip were observed.

CS(=O)(=O)c1ccccc1S(=O)O [byproduct of CXL-1020]
side effect studies with the byproduct: negative
